Assay results reported in ChEMBL document CHEMBL1201862, “PubChem BioAssay data set” (2004).
Blank lines part the entries; values can stand above or below the compound they belong to. Calls of active or inactive are those of the source.

Columns and labels:
[1] = target: T1, DNA repair protein RAD52 homolog (Homo sapiens, UniProt P43351); assay type: functional, biochemical
T1 sequence (P43351 whole entry): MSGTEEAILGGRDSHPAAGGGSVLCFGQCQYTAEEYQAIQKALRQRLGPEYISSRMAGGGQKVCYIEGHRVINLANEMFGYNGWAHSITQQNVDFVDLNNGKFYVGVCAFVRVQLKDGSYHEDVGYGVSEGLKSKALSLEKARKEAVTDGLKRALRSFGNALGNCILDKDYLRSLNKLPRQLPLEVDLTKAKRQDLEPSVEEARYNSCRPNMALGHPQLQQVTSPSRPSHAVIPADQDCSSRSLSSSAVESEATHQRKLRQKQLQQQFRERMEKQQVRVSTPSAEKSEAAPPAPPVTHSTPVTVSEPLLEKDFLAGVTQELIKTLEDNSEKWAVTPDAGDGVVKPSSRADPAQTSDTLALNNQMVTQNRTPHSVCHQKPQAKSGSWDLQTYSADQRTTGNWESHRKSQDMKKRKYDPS

[2] = target: T2, Tyrosine-protein phosphatase non-receptor type 7 (Homo sapiens, UniProt P35236); experiment: HePTP tyrosine phosphatase activity blockers – biochemical, absorbance, leukemia target, primary screen (AID 521); assay type: functional
T2 sequence (P35236 whole entry): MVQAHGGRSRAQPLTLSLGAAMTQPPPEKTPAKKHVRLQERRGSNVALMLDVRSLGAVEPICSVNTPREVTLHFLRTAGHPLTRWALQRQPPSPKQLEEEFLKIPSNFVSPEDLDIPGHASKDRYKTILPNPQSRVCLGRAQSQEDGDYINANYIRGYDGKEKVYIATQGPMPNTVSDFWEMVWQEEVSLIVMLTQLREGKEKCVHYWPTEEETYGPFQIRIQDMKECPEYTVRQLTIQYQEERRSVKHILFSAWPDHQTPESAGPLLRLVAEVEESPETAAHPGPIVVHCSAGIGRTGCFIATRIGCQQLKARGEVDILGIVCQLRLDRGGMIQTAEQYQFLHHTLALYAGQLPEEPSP

[3] = target: T3, Short transient receptor potential channel 4 (Mus musculus, UniProt Q9QUQ5); experiment: block of DAMGO-driven TRPC4 calcium entry – cell-based, HEK293 TRPC4/mu-opioid, Fluo-4 calcium, dose response (AID 434942); assay type: functional;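 further: potency of inhibitors blocking the TRPC4 calcium response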
T3 sequence (Q9QUQ5 whole entry): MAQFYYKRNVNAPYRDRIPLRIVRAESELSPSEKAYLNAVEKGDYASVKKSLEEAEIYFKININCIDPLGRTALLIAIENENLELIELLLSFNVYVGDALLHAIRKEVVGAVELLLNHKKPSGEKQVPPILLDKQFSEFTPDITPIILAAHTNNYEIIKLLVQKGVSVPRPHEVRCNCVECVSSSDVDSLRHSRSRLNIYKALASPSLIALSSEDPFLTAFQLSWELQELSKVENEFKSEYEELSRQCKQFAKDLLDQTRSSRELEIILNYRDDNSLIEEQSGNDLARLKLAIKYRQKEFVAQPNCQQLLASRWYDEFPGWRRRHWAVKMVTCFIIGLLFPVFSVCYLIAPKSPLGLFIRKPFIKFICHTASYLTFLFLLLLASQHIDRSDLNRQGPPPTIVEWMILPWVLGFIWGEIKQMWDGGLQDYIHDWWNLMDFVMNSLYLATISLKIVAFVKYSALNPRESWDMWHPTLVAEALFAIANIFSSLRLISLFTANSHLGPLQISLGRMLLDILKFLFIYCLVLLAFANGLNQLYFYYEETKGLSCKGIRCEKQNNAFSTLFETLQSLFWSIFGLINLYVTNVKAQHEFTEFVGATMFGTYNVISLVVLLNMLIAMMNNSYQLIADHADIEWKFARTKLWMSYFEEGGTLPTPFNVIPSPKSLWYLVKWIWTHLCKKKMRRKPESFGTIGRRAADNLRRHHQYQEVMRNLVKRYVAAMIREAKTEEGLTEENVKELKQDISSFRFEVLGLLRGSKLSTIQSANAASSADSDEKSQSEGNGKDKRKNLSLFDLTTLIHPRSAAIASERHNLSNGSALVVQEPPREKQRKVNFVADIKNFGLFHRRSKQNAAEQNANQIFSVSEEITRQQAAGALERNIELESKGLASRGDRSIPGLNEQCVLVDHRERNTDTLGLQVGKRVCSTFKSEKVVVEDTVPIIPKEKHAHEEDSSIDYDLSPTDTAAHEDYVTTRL

[4] = target: T4, Oxysterols receptor LXR-beta (Homo sapiens, UniProt P55055); assay type: functional, cell-based;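 further: agonist activity at LXR measured by a cell-based luminescence readout across a dose range, run as a counterscreen for daf-12 agonists; HEK293 cells with Gal4-LXR fusion and GAL4-driven luciferase reporter; potency for activation of Gal4-LXR reporter so compounds are agonists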
T4 sequence (P55055 whole entry): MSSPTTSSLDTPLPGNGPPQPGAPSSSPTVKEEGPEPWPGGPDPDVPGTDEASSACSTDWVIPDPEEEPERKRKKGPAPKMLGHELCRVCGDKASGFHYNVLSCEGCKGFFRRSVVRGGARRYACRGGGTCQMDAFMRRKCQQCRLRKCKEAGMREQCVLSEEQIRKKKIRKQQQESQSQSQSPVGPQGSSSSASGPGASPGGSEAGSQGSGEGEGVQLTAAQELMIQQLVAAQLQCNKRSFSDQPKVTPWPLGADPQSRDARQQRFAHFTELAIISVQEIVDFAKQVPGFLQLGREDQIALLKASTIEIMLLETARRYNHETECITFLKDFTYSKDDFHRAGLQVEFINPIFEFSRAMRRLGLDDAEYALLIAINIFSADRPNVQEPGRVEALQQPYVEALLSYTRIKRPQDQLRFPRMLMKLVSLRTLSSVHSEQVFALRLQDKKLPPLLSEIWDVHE

Leucine aminopeptidase = target: T5, Leucine aminopeptidase (Plasmodium falciparum 3D7, UniProt Q8IL11); experiment: P. falciparum M17LAP inhibitors, primary screen, biochemical, fluorogenic H-Leu-NHMec substrate, 1536-well (AID 1619); assay type: functional
T5 sequence (Q8IL11 whole entry): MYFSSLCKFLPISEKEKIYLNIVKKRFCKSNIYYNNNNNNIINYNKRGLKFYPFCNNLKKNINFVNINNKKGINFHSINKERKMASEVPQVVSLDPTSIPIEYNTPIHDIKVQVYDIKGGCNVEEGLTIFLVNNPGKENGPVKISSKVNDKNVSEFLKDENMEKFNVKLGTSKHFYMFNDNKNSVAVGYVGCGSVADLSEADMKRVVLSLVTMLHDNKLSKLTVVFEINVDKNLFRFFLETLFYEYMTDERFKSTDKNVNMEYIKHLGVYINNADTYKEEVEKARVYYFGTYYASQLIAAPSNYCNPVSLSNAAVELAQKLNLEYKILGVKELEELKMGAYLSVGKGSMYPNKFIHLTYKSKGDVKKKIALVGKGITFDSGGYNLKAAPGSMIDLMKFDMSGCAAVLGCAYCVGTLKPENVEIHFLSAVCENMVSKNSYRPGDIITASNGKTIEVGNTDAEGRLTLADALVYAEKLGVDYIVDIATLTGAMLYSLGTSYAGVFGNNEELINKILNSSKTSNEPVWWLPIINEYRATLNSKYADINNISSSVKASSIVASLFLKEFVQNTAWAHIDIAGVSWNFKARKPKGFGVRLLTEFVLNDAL

[5] = P. falciparum Dd2 growth inhibitors, dose response, SYBR Green, cherry-picked samples (AID 1159567); assay type: functional, cell-based
[6] = toxicity to human hepatoma HepG2 cells – cell-based, cherry-picked samples, cytotoxicity control, dose response (AID 1159577); assay type: functional
[7] = viability loss in human Jurkat cells – cell-based, luminescence, cytotoxicity control for P. falciparum gametocyte viability project, dose response (AID 1117277); assay type: functional;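 further: potency reflects loss of cellular ATP meaning fewer viable cells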
[8] = viability inhibitors of stage V gametocytes – luminescence, dose response (AID 1117278); assay type: functional, cell-based;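 further: gametocytes exposed to compound for 24 hours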

AC50 [1]: 9.43 µM (active)
SMILES: Cc1ccccc1Cn1c2ccccc2c2cnn(CC(=O)NCCCN3CCN(C)CC3)c(=O)c21

IC50 [2]: > 100 µM (not active)
SMILES: COc1ccc(Cc2nnc(NC(=O)c3ccco3)s2)cc1OC

AC50 [1]: 28.3 µM (active)
SMILES: CN(C)CCN(C(=O)c1ccc2ccccc2c1)c1nc2cc3c(cc2s1)OCO3

EC50 [3]: 0.944 µM (active) | IC50 [2]: > 100 µM (not active)
SMILES: Cn1c(=O)c2c(nc(SCc3cccnc3)n2Cc2ccc(F)cc2)n(C)c1=O

EC50 [4]: > 67.5 µM (inactive)
SMILES: C(=C\n1nnc2ccccc21)/c1ccccn1

IC50 (Leucine aminopeptidase): 12.1 µM (active) | IC50 [2]: 0.1 µM (active)
SMILES: Cn1nnnc1SCC1=C(C(=O)O)N2C(=O)[C@@H](NC(=O)[C@H](O)c3ccccc3)[C@H]2SC1 [CEFAMANDOLE SODIUM]

IC50 [2]: > 100 µM (not active)
SMILES: CCn1c2ccccc2c2nnc(SCC(=O)N3CC(C)OC(C)C3)nc21 (stereo not drawn)

SMILES: CO[C@H]1CN(C)C(=O)c2cc(NC(=O)c3ccc(-c4ccccc4)cc3)ccc2OC[C@H](C)NC[C@H]1C
AC50 [5]: 5.36 µM (active) | AC50 [6]: 10.1 µM (active)

SMILES: Cc1cc(C)cc(OCc2nc(-c3cccnc3)no2)c1
IC50 [7]: > 83.3 µM (inactive) | IC50 [8]: > 109 µM (inactive)
